According to ChEMBL document CHEMBL5725945, “Autotaxin inhibitors” (2018):

molecular target: Autotaxin (Homo sapiens, UniProt Q13822); assay: Quanta Red Assay: Measuring ATX activity using an enzyme coupled Quanta Red assay (Thermo Scientific Pierce Protein Research Products, Product #15159) was determined as follows. 8 μL human recombinant ATX (final concentration 0.8 μg/mL) in 1× Assay buffer containing 50 mM Tris-HCl (pH 8.0), 5 mM CaCl2 was added to an opaque black flat-bottom 384-well plate (Corning, #3575) containing 2 μL test compound in 40% DMSO (4% final DMSO concentration). 10 μL of Quanta Red, Horseradish peroxidase (HRP), Choline Oxidase (CO), Rac-1-Palmitoyl-glycero-3-phosphocholine solution (final concentration 1:250 for Quanta Red, 0.5units/ml HRP, 0.5units/ml CO, 15 μM Rac-1-Palmitoyl-glycero-3-phosphocholine) in 1× assay buffer (as described previously) was added to each well to start the reaction and the plate was incubated at room temperature for 2 hours. The reaction was stopped after 2 hours with a 20 μL addition of Quanta Red Stop solution (1:20 dilution in distilled water). The above-described mixture with DMSO alone was used as a positive control whereas that with DMSO alone without ATX was taken as a negative control. For each test compound, ten concentrations were measured covering a range of 6.1 nM to 120 μM to determine IC50 values. The top concentration was decreased to 1.2 μM when a test compound's IC50 value was evaluated in low nanomolar range. Fluorescence was determined in a BMG Labtech Pherastar plus plate reader (λ emission=540 nm, λ excitation=590 nm). Data were analysed using Excel fit software.

Row | SMILES | IC50 [nM]
1 | O=C(Nc1nnc(CCC2CCCC2)s1)C1CC(=O)N(c2ccc(CN3CCOCC3)cc2)C1 (stereo not drawn) | 3
2 | CCC(C)CCc1nnc(NC(=O)C2CC(=O)N(c3ccc(CN4CCOCC4)cc3)C2)s1 (stereo not drawn) | 11
3 | O=C(Nc1cc(CCc2ccc(Cl)cc2)[nH]n1)C1CC(=O)N(c2ccc(CN3CCOCC3)cc2)C1 (stereo not drawn) | 5
4 | CN1CCN(Cc2ccc(N3C[C@H](NC(=O)c4nnc(CCc5ccc(Cl)cc5)s4)CC3=O)cc2)CC1 | 124
5 | O=C1CN(Cc2ccc(N3C[C@H](NC(=O)c4nnc(CCc5ccc(Cl)cc5)s4)CC3=O)cc2)CCN1 | 8

More lines, in order of falling IC50, values ahead:

Row | IC50 [nM] | SMILES
6 | 358 | O=C(Nc1nnc(CCC2CCOCC2)s1)C1CC(=O)N(c2ccc(CN3CCOCC3)cc2)C1 (stereo not drawn)
7 | 4 | CCCN(CC)Cc1ccc(N2CC(C(=O)Nc3nnc(CCc4ccc(Cl)cc4)s3)CC2=O)cc1 (stereo not drawn)
8 | 3 | CCCN(C)Cc1ccc(N2CC(C(=O)Nc3nnc(CCc4ccc(Cl)cc4)s3)CC2=O)cc1 (stereo not drawn)
